Data on 33 compounds can be found in patent US4495196A, “Antiinflammatory 4,5-diaryl-α-polyfluoroalkyl-1H-pyrrole-2-methanols and method for use thereof” (E. I. Du Pont de Nemours and Company, priority 1981, dated 1985).

Experiment [1] has as its system adjuvant-induced arthritis in rats. Kind of experiment: Established Adjuvant-Induced Arthritis in Rats. Format: in vivo, Lewis (Wistar) male rats. The conditions noted are these: for ED50: 504 h, read-out: Adjuvant Arthritis ED50.
Experiment [2] deals with phenylquinone-induced writhing in mice. Kind of experiment: Phenylquinone Writhing Test. Format: in vivo, female white mice. Conditions: mouse; oral; effective analgesic dose for 50% of the mice; observed 10 minutes from 30 minutes after dosing. The procedure:
Phenylquinone Writhing Test
The phenylquinone writhing test, modified from Siegmund, et al., Proc. Soc. […] A test compound suspended in 1% methylcellulose was given orally to fasted (17-21 hours) female white mice, 5-20 animals per double blind test. Aqueous (0.01% phenyl-p-benzoquinone) phenylquinone was injected intraperitoneally at 24 minutes later using 0.20 ml per mouse.

The mark [3] stands for this setting: rat, oral gavage once daily for 7 days (days 14-20), ED50% for decrease from control paw volume, estimated by inspection, day 21.
The mark [4] stands for this setting: 168 h, rat, oral once daily for 7 days, read-out: percent reduction in paw volume at the indicated dose.

The structures appear in SMILES notation. Read-outs that look alike come from different tables or passages of the source.

For `OC(c1cc(-c2ccc(Cl)cc2)c(-c2ccc(Cl)cc2)[nH]1)(C(F)(F)F)C(F)(F)F` [Example 1, 4,5-Bis(4-chlorophenyl)-α,α-bis(trifluoromethyl)-1H-pyrrole-2-methanol], the ED50 in experiment [1] (Rattus norvegicus, po) was 7 mg/kg; in experiment [2], above 108 mg/kg. With `OC(c1cc(-c2ccccc2)c(-c2ccccc2)[nH]1)(C(F)(F)F)C(F)(F)F` [Example 2], the inhibition in vivo at 81 mg/kg in experiment [1] (168 h, rat, oral once daily for 7 days, dose 81 mg/kg, read-out: percent reduction in paw volume at the indicated dose) amounted to 42%. In addition, it took a dose of 135 mg/kg to reach the 50% effect level in experiment [2] (ED50). As to `OC(c1cc(-c2ccc(F)cc2)c(-c2ccc(F)cc2)[nH]1)(C(F)(F)F)C(F)(F)F` [Example 3, 4,5-bis(4-fluorophenyl)-α,α-bis(trifluoromethyl)-1H-pyrrole-2-methanol], the 50% effective dose (ED50) in experiment [1] (setting [3]) is 3.5 mg/kg; in experiment [2], above 108 mg/kg.

Regarding `OC(c1cc(-c2ccccc2)c(-c2ccc(Cl)c(Cl)c2)[nH]1)(C(F)(F)F)C(F)(F)F` [Example 4], the figures for the ED50 in experiment [1] (setting [3]) and in experiment [2] were 70 mg/kg and above 108 mg/kg, respectively. The like results for `OC(c1cc(-c2ccc(F)cc2)c(-c2ccc(Br)cc2)[nH]1)(C(F)(F)F)C(F)(F)F` [Example 5] were, in that order, 6 mg/kg and above 135 mg/kg. For `Cc1c(C(O)(C(F)(F)F)C(F)(F)F)[nH]c(-c2ccc(F)cc2)c1-c1ccc(F)cc1` [Example 6], in that order: 2.8 mg/kg and above 135 mg/kg. For `OC(c1cc(-c2ccccc2)c(-c2cccnc2)[nH]1)(C(F)(F)F)C(F)(F)F` [Example 7], the inhibition in vivo at 18 mg/kg in experiment [1] (168 h, rat, oral once daily for 7 days, dose 18 mg/kg, read-out: percent reduction in paw volume at the indicated dose) is 31%. In experiment [2], this compound registered a median effective dose (ED50) of 78 mg/kg. Turning to `COc1ccc(-c2cc(C(O)(C(F)(F)F)C(F)(F)F)[nH]c2-c2ccc(OC)cc2)cc1` [Example 8], the values for the ED50 in experiment [1] (setting [3]) and in experiment [2] were 4 mg/kg and 5.2 mg/kg, respectively. With `Cc1ccc(-c2cc(C(O)(C(F)(F)F)C(F)(F)F)[nH]c2-c2ccc(C)cc2)cc1` [Example 9], the ED50 in experiment [1] (setting [3]) is 8 mg/kg; in experiment [2], above 108 mg/kg. For the compound `CN(C)c1ccc(-c2[nH]c(C(O)(C(F)(F)F)C(F)(F)F)cc2-c2ccc(F)cc2)cc1` [Example 10, 4-(4-fluorophenyl)-5-(4-dimethylaminophenyl)-α,α-bis(trifluoromethyl)-1H-pyrrole-2-methanol], the ED50 is 2.2 mg/kg in experiment [1] (setting [3]) and above 108 mg/kg in experiment [2].

`OC(c1cc(-c2ccc(F)cc2)c(-c2cccnc2)[nH]1)(C(F)(F)F)C(F)(F)F` [Example 11]: in experiment [1] (168 h, rat, oral once daily for 7 days, dose 15 mg/kg, read-out: percent reduction in paw volume at the indicated dose), the inhibition in vivo at 15 mg/kg was determined as 47%. Also, the ED50 in experiment [2] is above 108 mg/kg.

For the compound `CSc1ccc(-c2[nH]c(C(O)(C(F)(F)F)C(F)(F)F)cc2-c2ccc(F)cc2)cc1` [Example 12], the ED50 in experiment [1] (setting [3]) is 9 mg/kg; in experiment [2], above 108 mg/kg. In the case of `CS(=O)(=O)c1ccc(-c2[nH]c(C(O)(C(F)(F)F)C(F)(F)F)cc2-c2ccc(F)cc2)cc1` [Example 13], in experiment [1] (setting [4]), the inhibition in vivo at 27 mg/kg stood at 22%. The compound further had a median effective dose (ED50) in experiment [2] above 108 mg/kg.

Take `OC1(c2cc(-c3ccc(F)cc3)c(-c3ccc(F)cc3)[nH]2)C(F)(F)C(F)(F)C1(F)F` [Example 16]: the ED50 was 1.3 mg/kg in experiment [1] (Rattus norvegicus, po) and above 108 mg/kg in experiment [2].

With `OC(c1cc(-c2ccc(F)cc2)c(-c2ccc(F)cc2)[nH]1)(C(F)(F)Cl)C(F)(F)Cl` [Example 17], the ED50 is 6.5 mg/kg in experiment [1] (setting [3]) and above 108 mg/kg in experiment [2].

For the compound `OC(c1cc(-c2ccc(F)cc2)c(-c2ccc(F)cc2)[nH]1)(C(F)F)C(F)(F)F` (centres unmarked) [Example 18], the results for the ED50 in experiment [1] (setting [3]) and in experiment [2] were 4 mg/kg and above 108 mg/kg, respectively. On to `OC(c1cc(-c2ccc(F)cc2)c(-c2ccc(F)cc2)[nH]1)(C(F)(F)F)C(F)(F)Cl` (centres unmarked) [Example 19], for which the ED50 in experiment [1] (setting [3]) was 2 mg/kg; in experiment [2] it was above 108 mg/kg.

`OC1(c2cc(-c3ccc(F)cc3)c(-c3ccc(F)cc3)[nH]2)C(F)(F)C(F)(F)C1(F)Cl` (centres unmarked) [Example 20]: the median effective dose (ED50) in experiment [1] (setting [3]) is 4.5 mg/kg; in experiment [2] it was above 108 mg/kg. With `OC1(c2cc(-c3ccc(F)cc3)c(-c3ccc(F)cc3)[nH]2)C(F)(F)C(F)(F)C1(F)Br` (centres unmarked) [Example 21], the median effective dose (ED50) is 20 mg/kg in experiment [1] (setting [3]) and above 108 mg/kg in experiment [2].

Turning to `OC(c1cc(-c2ccc(F)cc2)c(-c2ccc(F)cc2)[nH]1)(C(F)(F)Cl)C(F)(Cl)Cl` (centres unmarked) [Example 22], the ED50 is 7 mg/kg in experiment [1] (Rattus norvegicus, po) and above 108 mg/kg in experiment [2]. For the compound `Cn1c(C(O)(C(F)(F)F)C(F)(F)F)cc(-c2ccc(F)cc2)c1-c1ccc(F)cc1` [Example 28, 4,5-Bis(4-fluorophenyl)-1-methyl-α,α-bis(trifluoromethyl)-1H-pyrrole-2-methanol], the median effective dose (ED50) in experiment [1] (setting [3]) was 0.66 mg/kg; in experiment [2] it was 45 mg/kg. The like results for `OC(c1cc(-c2ccc(F)cc2)c(-c2ccc(F)cc2)[nH]1)C(F)(F)F` (stereo not drawn) [Example 29, 4,5-Bis(4-fluorophenyl)-α-(trifluoromethyl)-1H-pyrrole-2-methanol] were, in that order, 11 mg/kg and above 108 mg/kg. For `COc1ccc(-c2cc(C(O)C(F)(F)F)[nH]c2-c2ccc(OC)cc2)cc1` (stereo not drawn) [Example 30, 4,5-Bis(4-methoxyphenyl)-α-(trifluoromethyl)-1H-pyrrole-2-methanol], in that order: 5.5 mg/kg and 13.4 mg/kg. The like results for `COc1ccc(-c2cc(C(C)(O)C(F)(F)F)[nH]c2-c2ccc(OC)cc2)cc1` (stereo not drawn) [Example 31, 4,5-Bis(4-methoxyphenyl)-α-methyl-α-(trifluoromethyl)-1H-pyrrole-2-methanol] were, in that order, 1.25 mg/kg and 23 mg/kg. For the compound `COC(c1cc(-c2ccc(F)cc2)c(-c2ccc(F)cc2)n1C)(C(F)(F)F)C(F)(F)F` [Example 32, 2,3-Bis(4-fluorophenyl)-1-methyl-5-[2,2,2-trifluoro-1-methoxy-1-(trifluoromethyl)ethyl]-1H-pyrrole], the ED50 in experiment [1] (setting [3]) was 5.5 mg/kg; in experiment [2] it was above 108 mg/kg.

For `Fc1ccc(-c2cc(C(OCc3ccccc3)(C(F)(F)F)C(F)(F)F)[nH]c2-c2ccc(F)cc2)cc1` [Example 33, 2,3-Bis(4-fluorophenyl)-5-[2,2,2-trifluoro-1-(phenylmethoxy)-1-(trifluoromethyl)ethyl]-1H-pyrrole], the inhibition in vivo at 25 mg/kg in experiment [1] (setting [4]) was determined as 35%. With `CC(=O)OC(c1cc(-c2ccc(F)cc2)c(-c2ccc(F)cc2)n1C)(C(F)(F)F)C(F)(F)F` [Example 34, 4,5-Bis(4-fluorophenyl)-1-methyl-α,α-bis(trifluoromethyl)-1H-pyrrole-2-methanol, Acetate], the 50% effective dose (ED50) in experiment [1] (setting [3]) is 2.5 mg/kg; in experiment [2], above 108 mg/kg. Take `Cn1c(C(OC(=O)c2ccccc2)(C(F)(F)F)C(F)(F)F)cc(-c2ccc(F)cc2)c1-c1ccc(F)cc1` [Example 35, 4,5-Bis(4-fluorophenyl)-1-methyl-α,α-bis(trifluoromethyl)-1H-pyrrole-2-methanol, Benzoate]: in experiment [1] (setting [4]), the inhibition in vivo at 27 mg/kg turned out to be 22%. In experiment [2], this compound had a median effective dose (ED50) above 108 mg/kg. As to `COC(=O)OC(c1cc(-c2ccc(F)cc2)c(-c2ccc(F)cc2)n1C)(C(F)(F)F)C(F)(F)F` [Example 36, 4,5-Bis(4-fluorophenyl)-1-methyl-α,α-bis(trifluoromethyl)-1H-pyrrole-2-methanol, Methylcarbonate], the inhibition in vivo at 25 mg/kg in experiment [1] (setting [4]) amounted to 46%. In experiment [2], this compound came in with an ED50 above 108 mg/kg. In the case of `OC(c1cc(-c2ccc(F)cc2)c(-c2ccc(F)cc2)[nH]1)C(F)(F)C(F)(F)F` (centres unmarked) [Example 37], the median effective dose (ED50) in experiment [1] (setting [3]) was 2.9 mg/kg; in experiment [2], 103 mg/kg. For `CC(O)(c1cc(-c2ccc(F)cc2)c(-c2ccc(F)cc2)[nH]1)C(F)(F)C(F)(F)F` (centres unmarked) [Example 38], in that order: 3.1 mg/kg and above 108 mg/kg. As to `OC(c1cc(-c2ccc(F)cc2)c(-c2ccc(F)cc2)[nH]1)C(F)(F)C(F)(F)C(F)(F)F` (centres unmarked) [Example 49], the ED50 was 7 mg/kg in experiment [1] (Rattus norvegicus, po) and above 108 mg/kg in experiment [2]. On to `CC(O)(c1cc(-c2ccc(F)cc2)c(-c2ccc(F)cc2)[nH]1)C(F)(F)F` (centres unmarked) [Example 50], for which the inhibition in vivo at 9 mg/kg in experiment [1] (168 h, rat, oral once daily for 7 days, dose 9 mg/kg, read-out: percent reduction in paw volume at the indicated dose) turned out to be 47%. In experiment [2], the 50% effective dose (ED50) was above 108 mg/kg.
